Experimental data taken from ChEMBL document CHEMBL5226286, “The application of isatin-based multicomponent-reactions in the quest for new bioactive and druglike molecules” (Eur J Med Chem, 2021).
Values after ≈ are worked out from the molar mass of the structure shown. Active and inactive are the calls of the source. The calls are words filed in the database; no cut-off is given here.

Key:
[1] = test system: Escherichia coli; assay: Antibacterial activity against Escherichia coli NCIM 2688 measured after 8 hrs; format: functional
[2] = test system: Mycobacterium tuberculosis; assay: Antimycobacterial activity against active stage of Mycobacterium tuberculosis H37Ra ATCC 25177 assessed as minimum inhibitory concentration by XTT assay; format: functional
[3] = test system: Staphylococcus aureus; assay: Antibacterial activity against Staphylococcus aureus NCIM 2010 measured after 12 hrs; format: functional
[4] = test system: Mycobacterium tuberculosis; assay: Antimycobacterial activity against dormant stage of Mycobacterium tuberculosis H37Ra ATCC 25177 assessed as minimum inhibitory concentration by XTT assay; format: functional
[5] = test system: Pseudomonas aeruginosa; assay: Antibacterial activity against Pseudomonas aeruginosa NCIM […] measured after 8 hrs; format: functional
[6] = test system: Bacillus subtilis; assay: Antibacterial activity against Bacillus subtilis NCIM 2079 measured after 12 hrs; format: functional
[7] = test system: Aspergillus flavus; assay: Antifungal activity against Aspergillus flavus; format: functional
[8] = test system: Aspergillus niger; assay: Antifungal activity against Aspergillus niger; format: functional
[9] = test system: Escherichia coli; assay: Antibacterial activity against Escherichia coli incubated for 24 to 48 hrs by agar diffusion well method; format: functional; settings: time 24-48 hrs
[10] = test system: Streptococcus pneumoniae; assay: Antibacterial activity against Streptococcus pneumoniae incubated for 24 to 48 hrs by agar diffusion well method; format: functional; settings: time 24-48 hrs
[11] = test system: Aspergillus fumigatus; assay: Antifungal activity against Aspergillus fumigatus RCMB 02568; format: functional
[12] = test system: Bacillus subtilis; assay: Antibacterial activity against Bacillus subtilis incubated for 24 to 48 hrs by agar diffusion well method; format: functional; settings: time 24-48 hrs
[13] = test system: Candida albicans; assay: Antifungal activity against Candida albicans RCMB 05036; format: functional
[14] = test system: Syncephalastrum racemosum; assay: Antifungal activity against Syncephalastrum racemosum RCMB 05922; format: functional
[15] = test system: Geotrichum candidum; assay: Antifungal activity against Geotrichum candidum RCMB 05097; format: functional
[16] = test system: Pseudomonas aeruginosa; assay: Antibacterial activity against Pseudomonas aeruginosa incubated for 24 to 48 hrs by agar diffusion well method; format: functional; settings: time 24-48 hrs
[17] = test system: MCF7; assay: Cytotoxicity against human MCF7 cells; format: functional, cell-based
[18] = Antioxidant activity assessed as DPPH radical scavenging activity at 1 mg/ml relative to control; format: functional
[19] = test system: HepG2; assay: cells; format: functional, cell-based; settings: Homo sapiens
Description: Antiproliferative activity against human HepG2 cells

[20] = test system: A549; assay: Anticancer activity against human A549 cells by MTT assay; format: functional, cell-based
[21] = test system: MDA-MB-435; assay: Antiproliferative activity against human MDA-MB-435 cells; format: functional, cell-based
[22] = test system: Pseudomonas aeruginosa; assay: Antibacterial activity against Pseudomonas aeruginosa by disc diffusion method; format: functional
[23] = test system: Bacillus subtilis; assay: Antibacterial activity against Bacillus subtilis by disc diffusion method; format: functional
[24] = test system: Escherichia coli; assay: Antibacterial activity against Escherichia coli by disc diffusion method; format: functional
[25] = test system: Staphylococcus aureus; assay: Antibacterial activity against Staphylococcus aureus by disc diffusion method; format: functional
[26] = test system: Staphylococcus aureus; assay: Antibacterial activity against Staphylococcus aureus ATCC 25923; format: functional
[27] = test system: Bacillus pumilus; assay: Antibacterial activity against Bacillus pumilus PTCC 1114; format: functional
[28] = test system: Bacillus subtilis; assay: Antibacterial activity against Bacillus subtilis ATCC 465; format: functional
[29] = test system: Staphylococcus epidermidis; assay: Antibacterial activity against Staphylococcus epidermidis ATCC 12228; format: functional
[30] = test system: Escherichia coli; assay: Antimicrobial activity against Escherichia coli ATCC 25922; format: functional
[31] = test system: Enterococcus faecalis; assay: Antibacterial activity against Enterococcus faecalis ATCC 29737; format: functional
[32] = test system: Streptococcus mutans; assay: Antibacterial activity against Streptococcus mutans PTCC 1601; format: functional
[33] = test system: Micrococcus luteus; assay: Antibacterial activity against Micrococcus luteus PTCC 1110; format: functional

SMILES: CC1(C)CC(=O)C2=C(C1)OC(N)=C(C#N)C21C(=O)N(Cc2cn(Cc3ccc(Cl)cc3)nn2)c2ccc(Br)cc21 (centres undefined)
- MIC90 [1]: 2.86 µg/mL (≈ 4.61 µM)
- MIC [2]: > 50 µg/mL
- MIC90 [3]: 1.09 µg/mL (≈ 1.76 µM)
- MIC [4]: 10.6 µg/mL (≈ 17.1 µM)
- MIC90 [5]: 1.57 µg/mL (≈ 2.53 µM)
- MIC90 [6]: 3.18 µg/mL (≈ 5.13 µM)

SMILES: CC(C)CC1NC2(C(=O)Nc3ccccc32)C(C(=O)c2ccc(F)cc2)C1c1ccc(Cl)cc1 (centres undefined)
- MIC [7]: 20 µg/mL (≈ 41.9 µM)
- MIC [8]: 20 µg/mL (≈ 41.9 µM)

SMILES: Cc1cc2c(c(=O)o1)C1(C(=O)N(Cc3cn(Cc4ccc(Cl)cc4)nn3)c3ccc(Br)cc31)C(C#N)=C(N)O2 (centres undefined)
- MIC90 [1]: 2.75 µg/mL (≈ 4.54 µM)
- MIC [2]: 6.63 µg/mL (≈ 10.9 µM)
- MIC90 [3]: 3.86 µg/mL (≈ 6.37 µM)
- MIC [4]: 6.8 µg/mL (≈ 11.2 µM)
- MIC90 [5]: 2.33 µg/mL (≈ 3.85 µM)
- MIC90 [6]: 5.27 µg/mL (≈ 8.7 µM)

SMILES: CCOC(=O)N1C/C(=C\c2ccc(F)cc2F)C(=O)[C@@]2(C1)[C@H](c1ccc(F)cc1F)[C@H]1CCCN1[C@]21C(=O)Nc2ccccc21
- MIC [9]: 1.95 µg/mL (≈ 3.15 µM)
- MIC [10]: 0.015 µg/mL (≈ 0.0242 µM)
- MIC [11]: 7.81 µg/mL (≈ 12.6 µM)
- MIC [12]: 0.015 µg/mL (≈ 0.0242 µM)
- MIC [13]: inactive
- MIC [14]: 1.95 µg/mL (≈ 3.15 µM)
- MIC [15]: 0.03 µg/mL (≈ 0.0484 µM)
- MIC [16]: inactive

SMILES: NC[C@H]1O[C@H](O[C@H]2[C@H](O)[C@@H](O[C@H]3O[C@H](CO)[C@@H](O)[C@H](N)[C@H]3O)[C@H](N)C[C@@H]2N)[C@H](O)[C@@H](O)[C@@H]1O [KANAMYCIN]
- MIC90 [1]: 1.62 µg/mL (≈ 3.34 µM)
- MIC90 [3]: > 30 µg/mL
- MIC90 [5]: 0.49 µg/mL (≈ 1.01 µM)
- MIC90 [6]: 1.35 µg/mL (≈ 2.79 µM)

SMILES: CCOC(=O)C1=C(C(=O)OCC)C2(NC1(C(=O)OCC)C(=O)OCC)C(=O)Nc1ccccc12 (centres undefined)
- IC50 [17]: 28 µM

SMILES: O=C(c1ccc(F)cc1)C1C(c2ccc(Cl)cc2)CNC12C(=O)Nc1ccccc12 (centres undefined)
- Activity [18]: 88.7%

SMILES: Cc1ccc(Cn2cc(CN3C(=O)C4(C(C#N)=C(N)Oc5cc(C)oc(=O)c54)c4cc(Cl)ccc43)nn2)cc1 (centres undefined)
- MIC90 [1]: 2.65 µg/mL (≈ 4.9 µM)
- MIC [2]: > 50 µg/mL
- MIC90 [3]: 2.41 µg/mL (≈ 4.45 µM)
- MIC [4]: 11.6 µg/mL (≈ 21.4 µM)
- MIC90 [5]: 4.88 µg/mL (≈ 9.02 µM)
- MIC90 [6]: 7.19 µg/mL (≈ 13.3 µM)

SMILES: CCOC(=O)N1C/C(=C\c2ccc([N+](=O)[O-])cc2)C(=O)[C@@]2(C1)[C@H](c1ccc([N+](=O)[O-])cc1)[C@H]1CCCN1[C@]21C(=O)Nc2ccccc21
- MIC [9]: 15.6 µg/mL (≈ 24.5 µM)
- MIC [10]: 1.95 µg/mL (≈ 3.06 µM)
- MIC [11]: 1.95 µg/mL (≈ 3.06 µM)
- MIC [12]: 0.06 µg/mL (≈ 0.0941 µM)
- MIC [13]: inactive
- MIC [14]: 0.49 µg/mL (≈ 0.768 µM)
- MIC [15]: 0.12 µg/mL (≈ 0.188 µM)
- MIC [16]: inactive

SMILES: CC1(C)CC(=O)C2=C(C1)OC(N)=C(C#N)C21C(=O)N(Cc2cn(Cc3ccc(Cl)cc3)nn2)c2ccc(Cl)cc21 (centres undefined)
- MIC90 [1]: 1.78 µg/mL (≈ 3.09 µM)
- MIC [2]: > 50 µg/mL
- MIC90 [3]: 3.55 µg/mL (≈ 6.17 µM)
- MIC [4]: 8.07 µg/mL (≈ 14 µM)
- MIC90 [5]: 5.29 µg/mL (≈ 9.19 µM)
- MIC90 [6]: 1.14 µg/mL (≈ 1.98 µM)

SMILES: Cc1coc2c1C(=O)C(=O)c1c-2ccc2c1CCCC2(C)C [TANSHINONE IIA]
- IC50 [19]: 23.9 µM

SMILES: C#CCN1C(=O)[C@]2(c3ccccc31)N(C)C[C@@](C#N)(C(=O)c1c[nH]c3ccccc13)[C@@]21C(=O)Nc2ccccc21
- IC50 [20]: 50 µM

SMILES: N#CC1=C(N)OC2=C(C(=O)c3ccccc32)C12C(=O)Nc1ccc(Cl)cc12 (centres undefined)
- IC50 [21]: 2.1 µM

SMILES: CCOC(=O)N1C/C(=C\c2ccc(OC)cc2)C(=O)[C@@]2(C1)[C@H](c1ccc(OC)cc1)[C@H]1CCCN1[C@]21C(=O)Nc2ccccc21
- MIC [9]: 15.6 µg/mL (≈ 25.7 µM)
- MIC [10]: 0.98 µg/mL (≈ 1.61 µM)
- MIC [11]: 1.95 µg/mL (≈ 3.21 µM)
- MIC [12]: 0.015 µg/mL (≈ 0.0247 µM)
- MIC [13]: inactive
- MIC [14]: 0.98 µg/mL (≈ 1.61 µM)
- MIC [15]: 0.49 µg/mL (≈ 0.806 µM)
- MIC [16]: inactive

SMILES: Cc1cc2c(c(=O)o1)C1(C(=O)N(Cc3cn(Cc4ccc(Cl)cc4)nn3)c3ccccc31)C(C#N)=C(N)O2 (centres undefined)
- MIC [2]: 5.21 µg/mL (≈ 9.89 µM)
- MIC [4]: 4.39 µg/mL (≈ 8.33 µM)

SMILES: COc1ccccc1N1C(=O)C2(C3=C(Nc4ccccc42)C(=O)CC(C)(C)C3)C2=C1CC(C)(C)CC2=O (centres undefined)
- MIC [22]: 100 µg/mL (≈ 201 µM)
- MIC [23]: 75 µg/mL (≈ 151 µM)
- MIC [24]: 175 µg/mL (≈ 352 µM)
- MIC [25]: 75 µg/mL (≈ 151 µM)

SMILES: O=C1c2c(Cl)cccc2NC2(C(=O)Nc3ccccc32)N1Nc1ccccc1 (centres undefined)
- MIC [26]: 2 µg/mL (≈ 5.12 µM)
- MIC [27]: 4 µg/mL (≈ 10.2 µM)
- MIC [28]: 8 µg/mL (≈ 20.5 µM)
- MIC [29]: 4 µg/mL (≈ 10.2 µM)
- MIC [30]: 32 µg/mL (≈ 81.9 µM)
- MIC [31]: 128 µg/mL (≈ 328 µM)
- MIC [32]: 8 µg/mL (≈ 20.5 µM)
- MIC [33]: 8 µg/mL (≈ 20.5 µM)

SMILES: Cc1ccc(Cn2cc(CN3C(=O)C4(C(C#N)=C(N)Oc5cc(C)oc(=O)c54)c4ccccc43)nn2)cc1 (centres undefined)
- MIC90 [1]: 1.97 µg/mL (≈ 3.89 µM)
- MIC [2]: 14 µg/mL (≈ 27.6 µM)
- MIC90 [3]: 4.27 µg/mL (≈ 8.43 µM)
- MIC [4]: 7.3 µg/mL (≈ 14.4 µM)
- MIC90 [5]: 3.08 µg/mL (≈ 6.08 µM)
- MIC90 [6]: 2.85 µg/mL (≈ 5.63 µM)
